IC50 data for two compounds are collected here from ChEMBL document CHEMBL1122421 (J Med Chem, 1983).

For the assay, the target named is Opioid receptor (Rattus norvegicus, UniProt P33533+P34975+P33535). Description: Binding affinity against opiate receptor from rat neural membranes, using [3H]dihydromorphine as radioligand.

What is called IC50 is the midpoint of a concentration-inhibition curve. Higher therefore signals weaker potency in that assay.

As for `CN1CCC23c4c5ccc(O)c4O[C@H]2C(O)C=C[C@@]3(NC(=O)CBr)C1C5` (some centres not stated), the IC50 is 15 nM.

`CN1CCC23c4c5ccc(O)c4O[C@H]2C(=O)C=C[C@@]3(NC(=O)CBr)C1C5` (some centres not stated) displayed an IC50 of 10 nM. This IC50 lies about 1.5-fold lower than the previous one.
